In US12595262B2, “PRMT5 inhibitors” (MERCK SHARP & DOHME LLC, priority 2019, dated 2026) one finds EC50 data, which are given here for six compounds.

One test concerns the target T1, PRMT5 (Homo sapiens, UniProt O14744).
T1 construct: endogenous in cells; host or cells: MCF-7
Briefly: PRMT5 Cell Target Engagement (TE) Assay. The conditions noted are these: MCF-7 cells, treated for 3 days; symmetrically dimethylated (SDMA) nuclear proteins by high content imaging. Format: cell-based. From the text: PRMT5 Cell Target Engagement (TE) Assay
The PRMT5 TE assay is a biomarker assay for identifying compounds that inhibit symmetric dimethylation of arginine (SDMA) of PRMT5 substrates. The following substrates have been reported for PRMT5: histone H2A and H4 R3, Histone H3 R2, Histone H3 R8, spliceosome Sm proteins, ribosomal protein RPS10, p53, FEN1, nucleoplasmin, nucleolin, EGFR and EBNA. The assay focuses on detecting symmetrically dimethylated nuclear proteins using high content imaging technology. Detection of the expression of symmetrically dimethylated nuclear proteins is through a mixture of primary rabbit monoclonal antibodies to SDMA (CST 13222), which in turn recognized by an Alexafluor 488 dye-conjugated anti-rabbit IgG secondary antibody. The IN Cell Analyzer 2200 or Opera-Phenix measures nuclear Alexafluor 488 fluorescent dye intensity that is directly related to the level of expression of symmetrically dimethylated nuclear proteins at the single cell level. Nuclear AF488 dye intensities are compared to the mean value for DMSO treated cells (MIN) to report percent of inhibition for each compound-treated well.
In this assay, the cell potency (EC50) of each compound was determined from a ten point (1:3 serial dilution; top compound concentration of 10000 nM) titration curve using the following outlined procedure. Each well of a BD falcon collagen coated black/clear bottom 384-well plate was seeded with 4000 MCF-7 cells in 30 μl media and allowed to attach for 5 h. Media is ATCC-formulated Eagle's Minimum Essential Medium, Catalog No. 30-2003. To make the complete growth medium, the following components were added to the base medium: 0.01 mg/mL human recombinant insulin; fetal bovine serum to a final concentration of 10%. Additional 30 µl of media containing 2× compounds were added to each well. Cells were treated for 3 days in 37° C. CO2 incubator. On day 3, cells were fixed with Cytofix, permeabilized with 0.4% Triton-X-100/Cytofix, and washed with D-PBS without Ca/Mg. Cells were blocked with Licor Odessey blocking reagent for 1 h at room temperature, followed by incubation with anti-SDMA (1:1000) antibody at 4° C. overnight. 1° antibody was removed, followed by three washings with DPBS without Ca/Mg and 0.05% Tween20. Hoechst (5 μg/mL), Cell Mask deep stain (1:2000) and Alexa488-conjugated goat anti-rabbit IgG (2 μg/mL) was added for 1 h at room temperature. A final washing step (three washes) was performed before sealing plate for imaging on In Cell Analyzer 2200 or Opera-Phenix. Images from analyzer were uploaded to Columbus (at WP or BOS) for image analysis. IC50 values were determined by 4 parameters robust fit of percent fluorescence units vs. (Log10) compound concentrations.

Test [1] concerns the target T2, PRMT5-MEP50 enzyme complex (Homo sapiens, UniProt O14744).
T2 construct: 1.25 nM of Full-length (FL)-PRMT5-MEP50 enzyme complex; made in house; host or cells: baculovirus-transfected Sf21 cells
Briefly: PRMT5-MEP50 Enzyme Methylation Assay. Format: biochemical. The conditions noted are these: recombinant full-length PRMT5-MEP50 1.0 nM, 75 nM biotinylated H4R3(Me1) peptide, 15 μM SAM; 60 minutes pre-incubation, 150 minutes at 37° C. How it is done: PRMT5-MEP50 Enzyme Methylation Assay
PRMT5-MEP50 biochemical assay is a direct measurement of the methylation activity of the enzyme complex on a short peptide substrate derived from the N-terminus of H4 histone. Methylation experiment was performed with recombinant PRMT5-MEP50 protein complex. The assessment of inhibitory effect of small molecules was measured by the effectiveness of the compounds to inhibit this reaction (EC50).
In this assay, the potency (EC50) of each compound was determined from a twenty-point (1:2 serial dilution; top compound concentration of 100000 nM) titration curve using the following outlined procedure. To each well of a white ProxiPlus 384 well-plate, 100 nL of compound (1% DMSO in final assay volume of 10 μL) was dispensed, followed by the addition of 8 μL of 1× assay buffer (50 mM Bicine pH 8.0, 1 mM DTT, 0.004% Tween20, 0.01% BSA) containing 1.25 nM of Full-length (FL)-PRMT5-MEP50 enzyme complex (recombinant proteins from baculovirus-transfected Sf21 cells: FL-PRMT5; MW=[…] and FL-MEP50; MW=38614) and 1 μL of 150 μM S-(5′-Adenosyl)-L-Methionine Chloride (SAM). Plates were sealed and placed in a 37° C. humidified chamber for a 60 minutes pre-incubation with compound. Subsequently, each reaction was initiated by the addition of 1 μL 1× assay buffer containing 750 nM biotinylated H4R3(Me1) peptide. The final reaction in each well of 10 μL consists of 1.0 nM PRMT5-MEP50, 75 nM biotinylated-peptide, and 15 μM SAM. Methylation reactions were allowed to proceed for 150 minutes in a sealed plate at 37° C. Reactions were immediately quenched by the addition of 1 μL of 5% formic acid. Plates were then frozen and shipped to SAMDITM Tech Inc. to determine the percent conversion from H4R3(Me1) to H4R3(Me2). Dose-response curves were generated by plotting percent effect (% product conversion; Y-axis) vs. Log10 compound concentrations (X-axis). EC50 values were determined by non-linear regression according to models for sigmoidal (4 parameters) dose-response curves.

T1 sequence (O14744 whole entry): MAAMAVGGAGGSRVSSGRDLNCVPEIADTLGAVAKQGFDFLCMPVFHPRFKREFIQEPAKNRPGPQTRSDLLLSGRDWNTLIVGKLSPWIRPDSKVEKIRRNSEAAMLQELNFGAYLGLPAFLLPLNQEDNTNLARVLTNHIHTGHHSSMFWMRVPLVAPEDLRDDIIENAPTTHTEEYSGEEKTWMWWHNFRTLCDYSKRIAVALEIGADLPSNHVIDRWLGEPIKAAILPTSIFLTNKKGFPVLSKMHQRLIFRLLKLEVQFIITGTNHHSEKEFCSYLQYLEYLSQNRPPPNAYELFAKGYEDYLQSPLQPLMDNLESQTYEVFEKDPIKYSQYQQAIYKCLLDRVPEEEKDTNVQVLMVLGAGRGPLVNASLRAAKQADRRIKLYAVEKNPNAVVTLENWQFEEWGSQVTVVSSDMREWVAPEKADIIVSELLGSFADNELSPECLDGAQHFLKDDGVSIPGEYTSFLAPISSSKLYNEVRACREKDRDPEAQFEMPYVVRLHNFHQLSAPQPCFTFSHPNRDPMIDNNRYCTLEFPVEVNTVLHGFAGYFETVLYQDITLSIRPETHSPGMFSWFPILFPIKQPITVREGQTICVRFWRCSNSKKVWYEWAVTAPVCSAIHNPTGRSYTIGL
T1 sequence (Q9BQA1 whole entry partner): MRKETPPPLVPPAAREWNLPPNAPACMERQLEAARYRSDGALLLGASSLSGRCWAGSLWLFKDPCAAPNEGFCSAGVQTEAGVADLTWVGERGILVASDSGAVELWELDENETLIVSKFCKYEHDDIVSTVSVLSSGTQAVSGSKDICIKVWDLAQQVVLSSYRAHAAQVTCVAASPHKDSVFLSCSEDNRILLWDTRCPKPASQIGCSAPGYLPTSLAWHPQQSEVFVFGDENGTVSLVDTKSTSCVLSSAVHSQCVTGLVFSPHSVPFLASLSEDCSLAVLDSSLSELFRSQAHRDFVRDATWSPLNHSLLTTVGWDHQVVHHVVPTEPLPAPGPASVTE
T2 sequence (O14744 whole entry): as the sequence (O14744 whole entry) above
T2 sequence (Q9BQA1 whole entry partner): as the sequence (Q9BQA1 whole entry partner) above

Regarding `O=C(c1cn2cc(C3CC3)cnc2n1)N1CC[C@H](N2CCc3ccccc3C2)[C@@H](O)C1` [Example 3, (6-cyclopropylimidazo[1,2-a]pyrimidin-2-yl)((3S,4S)-4-(3,4-dihydroisoquinolin-2(1H)-yl)-3-hydroxypiperidin-1-yl)methanone], the half-maximal effective concentration (EC50) at PRMT5 stood at 6.8 nM; in test [1] it was 1.3 nM.
In the case of `CCc1nc2nc(C(=O)N3CC[C@H](N4CCc5ccccc5C4)[C@@H](O)C3)cn2cc1Br` [Example 4, (6-bromo-7-ethylimidazo[1,2-a]pyrimidin-2-yl)((3S,4S)-4-(3,4-dihydroisoquinolin-2(1H)-yl)-3-hydroxypiperidin-1-yl)methanone], the EC50 came out at 15 nM on PRMT5 and 1.5 nM in test [1].
On to `[2H]C1([2H])c2ccccc2CCN1[C@@H]1CCN(C(=O)c2cc(NC3CCN(C(C)=O)CC3)ncc2F)C[C@H]1O` [Example 1c, 1-(4-((4-((3R,4R)-4-(3,4-dihydroisoquinolin-2(1H)-yl-1,1-d2)-3-hydroxypiperidine-1-carbonyl)-5-fluoropyridin-2-yl)amino)piperidin-1-yl)ethan-1-one], for which, at PRMT5, the EC50 came to 165 nM.
Regarding `[2H]C1([2H])c2ccccc2CCN1[C@H]1CCN(C(=O)c2cc(NC3CCN(C(C)=O)CC3)ncc2F)C[C@@H]1O` [Example 1b, 1-(4-((4-((3S,4S)-4-(3,4-dihydroisoquinolin-2(1H)-yl-1,1-d2)-3-hydroxypiperidine-1-carbonyl)-5-fluoropyridin-2-yl)amino)piperidin-1-yl)ethan-1-one], the EC50 at PRMT5 turned out to be 2 nM; in test [1] it was 0.9 nM.
In the case of `CC(=O)N1CCC(Nc2cc(C(=O)N3CC[C@H](N4CCc5ccccc5C4)[C@@H](O)C3)c(F)cn2)CC1` [Example 1, 1-{4-[(4-{[(3S,4S)-4-(3,4-dihydroisoquinolin-2(1H)-yl)-3-hydroxypiperidin-1-yl]carbonyl}-5-fluoropyridin-2-yl)amino]piperidin-1-yl}ethanone], the EC50 on PRMT5 is 6.9 nM; in test [1], 0.9 nM.
Consider `O=C(c1cn2cc(C3CC3(F)F)cnc2n1)N1CC[C@H](N2CCc3ccccc3C2)[C@@H](O)C1` (stereo partly drawn) [Example 2, (6-(2,2-difluorocyclopropyl)imidazo[1,2-a]pyrimidin-2-yl)((3S,4S)-4-(3,4-dihydroisoquinolin-2(1H)-yl)-3-hydroxypiperidin-1-yl)methanone], for which the EC50 worked out at 4.7 nM on PRMT5 and 1.6 nM in test [1].
